{
  "source": "patent US20210261512A1",
  "about": "“NOVEL COMPOUNDS” (INFLAZOME LIMITED, priority 2018, published 2021)",
  "data": [
    {"target": "NLRP3 (Homo sapiens, UniProt Q96P20)", "sequence (Q96P20 whole entry)": "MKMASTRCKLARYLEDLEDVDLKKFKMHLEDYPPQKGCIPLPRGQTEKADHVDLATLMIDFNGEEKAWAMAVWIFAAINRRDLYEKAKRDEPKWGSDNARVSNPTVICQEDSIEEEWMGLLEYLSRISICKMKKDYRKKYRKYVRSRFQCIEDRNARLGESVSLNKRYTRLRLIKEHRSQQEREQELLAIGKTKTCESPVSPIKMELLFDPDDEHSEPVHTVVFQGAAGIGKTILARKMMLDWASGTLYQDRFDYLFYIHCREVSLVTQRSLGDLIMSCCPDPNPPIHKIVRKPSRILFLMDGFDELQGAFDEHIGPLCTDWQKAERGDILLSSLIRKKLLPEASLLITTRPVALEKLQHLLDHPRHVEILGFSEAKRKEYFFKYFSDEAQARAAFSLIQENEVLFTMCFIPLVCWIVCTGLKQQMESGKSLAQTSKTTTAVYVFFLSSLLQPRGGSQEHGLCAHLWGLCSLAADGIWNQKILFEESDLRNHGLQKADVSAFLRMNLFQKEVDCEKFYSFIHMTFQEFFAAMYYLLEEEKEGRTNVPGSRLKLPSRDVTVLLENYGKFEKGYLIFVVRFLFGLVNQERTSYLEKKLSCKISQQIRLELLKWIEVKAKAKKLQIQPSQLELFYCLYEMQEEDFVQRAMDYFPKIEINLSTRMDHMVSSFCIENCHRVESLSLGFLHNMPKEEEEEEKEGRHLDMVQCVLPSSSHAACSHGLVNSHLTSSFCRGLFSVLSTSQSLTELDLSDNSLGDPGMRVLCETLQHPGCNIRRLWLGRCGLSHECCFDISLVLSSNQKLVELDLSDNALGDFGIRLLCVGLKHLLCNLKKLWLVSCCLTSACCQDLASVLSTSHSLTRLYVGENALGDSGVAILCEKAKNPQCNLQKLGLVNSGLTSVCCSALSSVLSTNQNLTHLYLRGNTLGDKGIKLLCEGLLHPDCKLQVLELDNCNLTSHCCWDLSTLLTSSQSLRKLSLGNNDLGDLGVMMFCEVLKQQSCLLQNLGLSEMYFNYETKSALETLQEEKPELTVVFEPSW", "test": "THP-1 cells pyroptosis assay", "format": "cell-based", "design": "Seed THP-1 cells (25,000 cells/well) containing 1.0 μg/ml LPS; host or cells: THP-1", "conditions": "LPS 1.0 μg/ml, nigericin 5 μM, resazurin readout, 10 μM top dose (Example 2: top dose of 30 μM)", "procedure,_shortened": "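Pyroptosis induced by 5 μM nigericin (1 h) in LPS-primed (1 μg/ml) THP-1 cells, 25,000/well in serum-free RPMI, after 3 h compound pre-treatment (8 points, 10 μM top unless stated). Surviving cells measured with 100 μM resazurin, Ex 560/Em 590; IC50 via variable-slope 4-parameter regression.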", "units": {"IC50": "µM"}, "values": [
      {"compound": "COc1ccc(S(=O)(=O)c2nnc(Nc3c4c(cc5c3CCC5)CCC4)[nH]2)cc1", "note": "[Example 183, N-(1,2,3,5,6,7-hexahydro-s-indacen-4-yl)-5-((4-methoxyphenyl)sulfonyl)-4H-1,2,4-triazol-3-amine]", "IC50": "≤ 5"},
      {"compound": "N#Cc1ccc(S(=O)(=O)c2nnc(Nc3c4c(cc5c3CCC5)CCC4)[nH]2)cc1", "note": "[Example 184, 4-((5-((1,2,3,5,6,7-hexahydro-s-indacen-4-yl)amino)-4H-1,2,4-triazol-3-yl)sulfonyl)benzonitrile]", "IC50": "≤ 5"},
      {"compound": "N#Cc1ccccc1S(=O)(=O)c1nnc(Nc2c3c(cc4c2CCC4)CCC3)[nH]1", "note": "[Example 185, 2-((5-((1,2,3,5,6,7-hexahydro-s-indacen-4-yl)amino)-4H-1,2,4-triazol-3-yl)sulfonyl)benzonitrile]", "IC50": "≤ 0.5"},
      {"compound": "CC(C)(O)c1ccc(S(=O)(=O)c2nnc(Nc3c4c(cc5c3CCC5)CCC4)[nH]2)cc1", "note": "[Example 186, 2-(4-((5-((1,2,3,5,6,7-hexahydro-s-indacen-4-yl)amino)-4H-1,2,4-triazol-3-yl)sulfonyl)phenyl) propan-2-01]", "IC50": "≤ 0.5"},
      {"compound": "Cc1ccccc1S(=O)(=O)c1nnc(Nc2c3c(cc4c2CCC4)CCC3)[nH]1", "note": "[Example 187, N-(1,2,3,5,6,7-hexahydro-s-indacen-4-yl)-5-(o-tolylsulfonyl)-4H-1,2,4-triazol-3-amine]", "IC50": "≤ 1"},
      {"compound": "N#Cc1cccc(S(=O)(=O)c2nnc(Nc3c4c(cc5c3CCC5)CCC4)[nH]2)c1", "note": "[Example 188, 3-((5-((1,2,3,5,6,7-hexahydro-s-indacen-4-yl)amino)-4H-1,2,4-triazol-3-yl)sulfonyl)benzonitrile]", "IC50": "≤ 5"},
      {"compound": "O=S(=O)(c1ccccc1)c1nnc(Nc2c(-c3ccncc3)ccc3c2CCC3)[nH]1", "note": "[Example 189, 5-(phenylsulfonyl)-N-(5-(pyridin-4-yl)-2,3-dihydro-1H-inden-4-yl)-4H-1,2,4-triazol-3-amine]", "IC50": "≤ 10"},
      {"compound": "COc1cc(-c2ccc3c(c2Nc2nnc(S(=O)(=O)c4ccccc4)[nH]2)CCO3)ccn1", "note": "[Example 190, N-(5-(2-methoxypyridin-4-yl)-2,3-dihydrobenzofuran-4-yl)-5-(phenylsulfonyl)-4H-1,2,4-triazol-3-amine]", "IC50": "≤ 5"},
      {"compound": "CC(C)c1cc(F)cc(-c2ccncc2)c1Nc1nnc(S(=O)(=O)c2ccccc2)[nH]1", "note": "[Example 191, N-(4-fluoro-2-isopropyl-6-(pyridin-4-yl)phenyl)-5-(phenylsulfonyl)-4H-1,2,4-triazol-3-amine]", "IC50": "≤ 10"},
      {"compound": "O=S(=O)(c1cnn(C2CC2)c1)c1nnc(Nc2c3c(cc4c2CCC4)CCC3)[nH]1", "note": "[Example 193, 3-((1-cyclopropyl-H-pyrazol-4-yl)sulfonyl)-N-(1,2,3,5,6,7-hexahydro-s-indacen-4-yl)-1H-1,2,4-triazol-5-amine]", "IC50": "≤ 5"},
      {"compound": "O=S(=O)(c1nnc(Nc2c3c(cc4c2CCC4)CCC3)[nH]1)C1CCCC(N2CCCC2)C1", "note": "(stereo not shown) [Example 194, N-(1,2,3,5,6,7-hexahydro-s-indacen-4-yl)-3-((3-(pyrrolidin-1-yl)cyclohexyl)sulfonyl)-1H-1,2,4-triazol-5-amine]", "IC50": "≤ 10"},
      {"compound": "CC(C)n1ncc(-c2ccncc2)c1Nc1nnc(S(=O)(=O)N2CCC(N(C)C)CC2)[nH]1", "note": "[Example 198, 1-((5-((1-isopropyl-4-(pyridin-4-yl)-1H-pyrazol-5-yl)amino)-4H-1,2,4-triazol-3-yl)sulfonyl)-N,N-dimethylpiperidin-4-amine]", "IC50": "≤ 10"},
      {"compound": "CN(C)C1CCN(S(=O)(=O)c2nnc(Nc3c(-c4ccnn4C)ccc4c3CCC4)[nH]2)CC1", "note": "[Example 205, N,N-dimethyl-1-((5-((5-(1-methyl-1H-pyrazol-5-yl)-2,3-dihydro-1H-inden-4-yl)amino)-4H-1,2,4-triazol-3-yl)sulfonyl)piperidin-4-amine]", "IC50": "≤ 10"},
      {"compound": "Cc1ccc(C(C)C)c(Nc2nnc(S(=O)(=O)N3CCC(N(C)C)CC3)[nH]2)c1", "note": "[Example 206, 1-((5-((2-isopropyl-5-methylphenyl)amino)-4H-1,2,4-triazol-3-yl)sulfonyl)-N,N-dimethylpiperidin-4-amine]", "IC50": "≤ 10"},
      {"compound": "CN(C)C1CCN(S(=O)(=O)c2nnc(Nc3c(-c4cnn(C)c4)ccc4c3CCC4)[nH]2)CC1", "note": "[Example 207, N,N-dimethyl-1-((5-((5-(1-methyl-1H-pyrazol-4-yl)-2,3-dihydro-1H-inden-4-yl)amino)-4H-1,2,4-triazol-3-yl)sulfonyl)piperidin-4-amine]", "IC50": "≤ 5"},
      {"compound": "COc1cc(-c2c(C)cccc2Nc2nnc(S(=O)(=O)N3CCC(N(C)C)CC3)[nH]2)ccn1", "note": "[Example 208, 1-((5-((2-(2-methoxypyridin-4-yl)-3-methylphenyl)amino)-4H-1,2,4-triazol-3-yl)sulfonyl)-N,N-dimethylpiperidin-4-amine]", "IC50": "≤ 10"},
      {"compound": "CN(C)C1CCN(S(=O)(=O)c2nnc(Nc3c(C4CCOCC4)ccc4c3CCC4)[nH]2)CC1", "note": "[Example 209, N,N-dimethyl-1-((5-((5-(tetrahydro-2H-pyran-4-yl)-2,3-dihydro-1H-inden-4-yl)amino)-4H-1,2,4-triazol-3-yl)sulfonyl)piperidin-4-amine]", "IC50": "≤ 10"},
      {"compound": "CN(C)C1CCN(S(=O)(=O)c2nnc(Nc3c4c(c(C#N)c5c3CCC5)CCC4)[nH]2)CC1", "note": "[Example 223, 8-((5-((4-(dimethylamino)piperidin-1-yl)sulfonyl)-4H-1,2,4-triazol-3-yl)amino)-1,2,3,5,6,7-hexahydro-s-indacene-4-carbonitrile]", "IC50": "≤ 5"},
      {"compound": "COc1cc(-c2cc(-c3ncco3)c3c(c2Nc2nnc(S(=O)(=O)N4CCC(N(C)C)CC4)[nH]2)CCC3)ccn1", "note": "[Example 229, 1-((5-((5-(2-methoxypyridin-4-yl)-7-(oxazol-2-yl)-2,3-dihydro-1H-inden-4-yl)amino)-4H-1,2,4-triazol-3-yl)sulfonyl)-N,N-dimethylpiperidin-4-amine]", "IC50": "≤ 10"},
      {"compound": "COc1cc(-c2cc(C#N)c3c(c2Nc2nnc(S(=O)(=O)N4CCC(N(C)C)CC4)[nH]2)CCC3)ccn1", "note": "[Example 230, 7-((5-((4-(dimethylamino)piperidin-1-yl)sulfonyl)-4H-1,2,4-triazol-3-yl)amino)-6-(2-methoxypyridin-4-yl)-2,3-dihydro-1H-indene-4-carbonitrile]", "IC50": "≤ 5"},
      {"compound": "CC(=O)c1c2c(c(Nc3nnc(S(=O)(=O)N4CCC(N(C)C)CC4)[nH]3)c3c1CCC3)CCC2", "note": "[Example 232, 1-(8-((5-((4-(dimethylamino)piperidin-1-yl)sulfonyl)-4H-1,2,4-triazol-3-yl)amino)-1,2,3,5,6,7-hexahydro-s-indacen-4-yl)ethan-1-one]", "IC50": "≤ 1"},
      {"compound": "CS(=O)(=O)c1nnc(Nc2c(-c3ccnc(OCc4ccccc4)c3)ccc3c2CCC3)[nH]1", "note": "[Example 234, N-(5-(2-(benzyloxy)pyridin-4-yl)-2,3-dihydro-1H-inden-4-yl)-5-(methylsulfonyl)-4H-1,2,4-triazol-3-amine]", "IC50": "≤ 5"},
      {"compound": "COCC(C)Oc1cc(-c2ccc3c(c2Nc2nnc(S(C)(=O)=O)[nH]2)CCC3)ccn1", "note": "(stereo not shown) [Example 237, N-(5-(2-((1-methoxypropan-2-yl)oxy)pyridin-4-yl)-2,3-dihydro-1H-inden-4-yl)-5-(methylsulfonyl)-4H-1,2,4-triazol-3-amine]", "IC50": "≤ 5"},
      {"compound": "CS(=O)(=O)c1nnc(Nc2c(-c3ccnc(OCCO)c3)ccc3c2CCC3)[nH]1", "note": "[Example 238, 2-((4-(4-((5-(methylsulfonyl)-4H-1,2,4-triazol-3-yl)amino)-2,3-dihydro-1H-inden-5-yl)pyridin-2-yl)oxy)ethan-1-ol]", "IC50": "≤ 10"},
      {"compound": "COc1cc(-c2cccc(C(C)C)c2Oc2nnc(S(=O)(=O)N3CCC(N(C)C)CC3)[nH]2)ccn1", "note": "[Example 243, 1-((5-(2-isopropyl-6-(2-methoxypyridin-4-yl)phenoxy)-4H-1,2,4-triazol-3-yl)sulfonyl)-N,N-dimethylpiperidin-4-amine]", "IC50": "≤ 5"},
      {"compound": "O=S(=O)(c1nnc(Nc2c3c(cc4c2CCC4)CCC3)[nH]1)N1CCC2(CCN(C3CC3)C2)CC1", "note": "[Example 244, 5-((2-cyclopropyl-2,8-diazaspiro[4.5]decan-8-yl)sulfonyl)-N-(1,2,3,5,6,7-hexahydro-s-indacen-4-yl)-4H-1,2,4-triazol-3-amine]", "IC50": "≤ 5"},
      {"compound": "COc1cc(-c2cc(F)cc(C(C)C)c2Oc2nnc(S(=O)(=O)N3CCC(N(C)C)CC3)[nH]2)ccn1", "note": "[Example 253, 1-((5-(4-fluoro-2-isopropyl-6-(2-methoxypyridin-4-yl)phenoxy)-4H-1,2,4-triazol-3-yl)sulfonyl)-N,N-dimethylpiperidin-4-amine]", "IC50": "≤ 5"},
      {"compound": "O=S(=O)(c1nnc(Nc2c3c(cc4c2CCC4)CCC3)[nH]1)N1CCC2(CCCN2CCF)CC1", "note": "[Example 255, 5-((1-(2-fluoroethyl)-1,8-diazaspiro[4.5]decan-8-yl)sulfonyl)-N-(1,2,3,5,6,7-hexahydro-s-indacen-4-yl)-4H-1,2,4-triazol-3-amine]", "IC50": "≤ 1"},
      {"compound": "CCN1CCCC12CCN(S(=O)(=O)c1nnc(Nc3c4c(cc5c3CCC5)CCC4)[nH]1)CC2", "note": "[Example 256, 5-((1-ethyl-1,8-diazaspiro[4.5]decan-8-yl)sulfonyl)-N-(1,2,3,5,6,7-hexahydro-s-indacen-4-yl)-4H-1,2,4-triazol-3-amine]", "IC50": "≤ 0.5"},
      {"compound": "CN(C)S(=O)(=O)c1nnc(Nc2c3c(cc4c2CCC4)CCC3)[nH]1", "note": "[Example 262, 5-((1,2,3,5,6,7-hexahydro-s-indacen-4-yl)amino)-N,N-dimethyl-4H-1,2,4-triazole-3-sulfonamide]", "IC50": "≤ 5"},
      {"compound": "O=S(=O)(c1nnc(Nc2c3c(cc4c2CCC4)CCC3)[nH]1)N1CC2(CCN(CC(F)(F)F)C2)C1", "note": "[Example 263, N-(1,2,3,5,6,7-hexahydro-s-indacen-4-yl)-5-((6-(2,2,2-trifluoroethyl)-2,6-diazaspiro[3.4]octan-2-yl)sulfonyl)-4H-1,2,4-triazol-3-amine]", "IC50": "≤ 5"}
    ]}
  ]
}
